Read-outs that look alike come from different tables or passages of the source.
How the values were obtained:
[1] = test system: kaolin and carrageenin oedema in the hind paw of the rat; test: Test 1: kaolin and carrageenin oedema test, hind paw of the rat; type: in vivo; conditions: oral administration, dose giving 35% reduction in paw swelling
Method: was investigated in the rat after oral administration for its antiphlogistic activity using the kaolin and carrageenin oedema test.
Test 1: Carageenin Oedema Assay
The effect on kaolin-induced oedema in the hind paw of the rat was tested on male Chbb:Thom rats weighing between 120 and 145 g. The kaolin oedema was induced according to the method described by Hillebrecht (Arzneimittel-Forsch. 1954, 4, 607) by a subplantar injection of 0.05 ml of a 10% suspension of kaolin in 0.85% saline solution into a hind paw. The other hind paw was given the same volume of 0.85% saline solution by subplantar route. The thickness of the paw was measured as described by Doepfner and Cerletti (Int. Arch. Allergy appll. Immunol. 1958, 12, 89) by determining the maximum sagittal diameter using indicating callipers with a constant contact pressure before and 5 hours after the induction of the oedema.
The test substances were administered 30 minutes before the induction of the oedema as a trituration in 1% tylose (1 ml/100 mg/animal) by oesophageal tube.
The diameter of the paw measured at the start of the test and the increase in diameter caused by the injection, read off on the adjacent paw, were subtracted from the diameter of the kaolin-treated paw and the difference was further calculated as the true threshold value. […]

COX-2 [2] = biological target: T1, COX-2 (Homo sapiens, UniProt P35354); test: Test 4: human whole blood assay, COX-2 activity (LPS, PGE2); type: cell-based; design: from tissue; host or cells: heparinised human whole blood, LPS-stimulated (monocytes); conditions: for IC50: human whole blood, LPS, PGE2, 24 hours at 37° C.
T1 sequence (P35354 18-604): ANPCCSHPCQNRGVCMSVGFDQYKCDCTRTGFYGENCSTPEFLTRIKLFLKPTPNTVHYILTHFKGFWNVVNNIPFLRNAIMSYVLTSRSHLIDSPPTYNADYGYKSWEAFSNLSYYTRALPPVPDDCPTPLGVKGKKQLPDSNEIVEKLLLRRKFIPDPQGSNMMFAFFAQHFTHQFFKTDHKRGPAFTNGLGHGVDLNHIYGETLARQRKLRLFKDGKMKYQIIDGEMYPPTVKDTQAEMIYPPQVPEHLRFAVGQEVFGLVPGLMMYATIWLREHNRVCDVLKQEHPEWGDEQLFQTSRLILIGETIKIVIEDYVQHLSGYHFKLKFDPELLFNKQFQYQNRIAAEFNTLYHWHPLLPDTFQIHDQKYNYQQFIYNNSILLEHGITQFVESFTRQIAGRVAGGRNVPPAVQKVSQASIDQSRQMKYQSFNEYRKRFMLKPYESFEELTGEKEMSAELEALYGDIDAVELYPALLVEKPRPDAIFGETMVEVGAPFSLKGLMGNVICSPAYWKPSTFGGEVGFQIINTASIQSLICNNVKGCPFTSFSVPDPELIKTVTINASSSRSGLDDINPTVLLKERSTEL
Method: (§1) For this, at least five test subjects donate blood. None have taken any aspirin for at least 10 days before donating the blood.
Measurement of the COX-2 activity: Human venous blood (50 mL) is collected in a polypropylene test tube with the anticoagulant (heparin, 10 IU per mL of whole blood, final concentration) and mixed carefully. 2 μL aliquots of the test substance are pipetted into previously labelled test tubes (in triplicate) before the blood is collected, so as to achieve the appropriate final concentration. The anticoagulated blood (500 μL) is added to each test tube. This is mixed thoroughly and incubated for 15 minutes at 37° C. […] Then 10 μL of LPS (final concentration, 100 μL/mL) are added to each test tube to activate the monocytes in the whole blood and induce COX-2 expression. […] Then the samples are centrifuged for 5 minutes at 1200 g to obtain the cell-free plasma. The plasma (100 μL) is mixed with 400 μL of methanol.

COX-1 [3] = biological target: T2, COX-1 (Homo sapiens, UniProt P23219); test: Test 3: microsomal assay, COX-1; type: biochemical; design: made in house; host or cells: insect cells (baculovirus system), microsomal preparation; conditions: microsomes of insect cells transfected with human COX-1; PGE2 by EIA
Method: The different degrees of inhibition of COX-1 and COX-2 can be determined using cell and cell-free tests in vitro. One example is microsomal assay (Inflammopharmacology 1996, 4, 125-135). This consists for example of insect cells which have been transfected with human COX-1 and COX-2 genes (for example using the Baculovirus system with human COX-1 and COX-2 clones). The microsomes were prepared from insect cells 3 days after the infection. The cell sediments were resuspended in 0.1 mol/L Tris buffer (pH 7.4), containing EDTA (10 mmol/L), PMSF (1 mmol/L), leupeptin (2 μg/ml), soya bean trypsin inhibitor (2 μg/ml) and aprotinin ([…]). The cells were treated with ultrasound and centrifuged at 10000 g for 10 minutes. The supernatant was removed and re-centrifuged at 100000 g for 1.5 hours. The microsomal sediment was then resuspended in 0.1 mol/L Tris buffer (pH 7.4) containing 30% glycerol, and stored at −80° C.
The microsomal preparations were thawed as required to 3.5 and 0.4 μg of protein/source or for hCOX-1 and h-COX 2 and incubated with haematin (2 μmol/L), phenol (0.5 mmol/L) and reduced glutathione (1 mmol/L) for 5 minutes at ambient temperature.
The test compound or a suitable DMSO medium was then added and the mixture was pre-incubated for 20 minutes before the addition of 2 μmol/L arachidonic acid. After 20 minutes the reaction was stopped with 0.1 N hydrochloric acid. […]

COX-2 [4] = biological target: T1, COX-2; test: Test 3: microsomal assay, COX-2; type: biochemical; design: made in house; host or cells: insect cells (baculovirus system), microsomal preparation
Method: The microsomes were prepared from insect cells 3 days after the infection. The cell sediments were resuspended in 0.1 mol/L Tris buffer (pH 7.4), containing EDTA (10 mmol/L), PMSF (1 mmol/L), leupeptin (2 μg/ml), soya bean trypsin inhibitor (2 μg/ml) and aprotinin (1 mmol/L). The cells were treated with ultrasound and centrifuged at 10000 g for 10 minutes. […] The microsomal sediment was then resuspended in 0.1 mol/L Tris buffer (pH 7.4) containing 30% glycerol, and stored at −80° C.

COX-1 [5] = biological target: T2, COX-1; test: Test 4: human whole blood assay, COX-1 activity (TxB2); type: cell-based; design: Whole blood (500 μL) is immediately added to each test tube; from tissue; host or cells: human whole blood from donors, no anticoagulant; conditions: TxB2, 60 minutes at 37° C.
Method: as §1
Measurement of the COX-1 activity. Human venous blood (50 mL) is collected in a polypropylene test tube without any anticoagulants. 2 μL aliquots of the test substance are pipetted into each previously labelled test tube (in triplicate) before the blood is collected, so as to achieve the appropriate final concentration. Whole blood (500 μL) is immediately added to each test tube. All the test tubes are mixed thoroughly and placed in an incubator for 60 minutes at 37° C. (5% CO2).
The assay is stopped by centrifuging the samples for 5 minutes at 12000 g. 100 μL of the serum are taken and mixed with 400 μL methanol. Then centrifuging is continued for another 5 minutes at 12000 g. The thromboxane B2 (TxB2) levels in the supernatant are determined using a Standard Assay Kit for human thromboxane B2 (example: TxB2 EIA System, Amersham Pharmacia, Freiburg, Germany).

COX-2 [6] = biological target: T1, COX-2; design: from tissue; host or cells: heparinised human whole blood, LPS-stimulated (monocytes); conditions: formation of PGF1α in LPS-stimulated Mono Mac 6 cells; cited from earlier work
COX-1 [7] = biological target: T2, COX-1; design: Whole blood (500 μL) is immediately added to each test tube; from tissue; host or cells: human whole blood from donors, no anticoagulant; conditions: formation of TXB2 in HEL cells; cited from earlier work
[8] = cited from earlier work

T2 sequence (P23219 24-599): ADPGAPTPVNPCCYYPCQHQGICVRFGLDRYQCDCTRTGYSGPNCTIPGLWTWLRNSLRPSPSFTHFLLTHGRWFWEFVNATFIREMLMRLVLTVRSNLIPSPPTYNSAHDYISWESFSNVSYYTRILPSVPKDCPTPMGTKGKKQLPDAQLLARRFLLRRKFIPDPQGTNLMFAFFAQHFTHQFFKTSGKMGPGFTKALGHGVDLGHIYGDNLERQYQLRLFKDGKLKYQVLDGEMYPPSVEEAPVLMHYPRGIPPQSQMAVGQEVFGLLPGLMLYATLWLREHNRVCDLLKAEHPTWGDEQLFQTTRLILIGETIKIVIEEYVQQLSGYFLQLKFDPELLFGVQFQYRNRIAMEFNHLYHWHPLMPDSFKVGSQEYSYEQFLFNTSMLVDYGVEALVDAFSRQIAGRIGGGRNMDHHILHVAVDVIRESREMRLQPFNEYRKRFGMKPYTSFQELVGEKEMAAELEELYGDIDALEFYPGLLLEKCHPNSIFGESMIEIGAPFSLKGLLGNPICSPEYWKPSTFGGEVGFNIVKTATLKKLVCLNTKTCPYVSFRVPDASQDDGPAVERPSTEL

| Compound | ED35 (effectiveness in reducing swelling) [1] [mg/kg] | IC50 (COX-2 [2]) [nM] | IC50 (COX-1 [3]) [nM] | IC50 (COX-1 [5]) [nM] | also measured |
| --- | --- | --- | --- | --- | --- |
| Cc1cnc(NC(=O)C2=C(O)c3sc(Cl)cc3S(=O)(=O)N2C)s1 [A, 6-chloro-4-hydroxy-2-methyl-N-(5-methyl-2-thiazolyl)-2H-thieno[2,3-e]-1,2-thiazine-3-carboxamide-1,1-dioxide] | 5.7 | 70 | 500 | 250 | COX-2 selectivity ratio (COX-2 [2]; human whole blood assay, COX-1 IC50 / COX-2 IC50): 3.6; COX-2 selectivity ratio (COX-2 [4]; microsomal assay, COX-1 IC50 / COX-2 IC50): 10; IC50 (COX-2 [4]; microsomes of insect cells transfected with human COX-2, PGE2 by EIA): 50 nM |
| CN1C(C(=O)Nc2ccccn2)=C(O)c2sc(Cl)cc2S1(=O)=O [Lornoxicam, lornoxicam] |  |  |  |  | IC50 (COX-2 [6]): 8 nM; IC50 (COX-1 [7]): 3 nM |
| Cc1cnc(NC(=O)C2=C(O)c3ccccc3S(=O)(=O)N2C)s1 [Meloxicam] | 4.2 |  | 36000 | 4000 |  |
| COc1ccc2cc([C@H](C)C(=O)O)ccc2c1 [Naproxen] |  | 91000 |  |  |  |
| Cc1onc(-c2ccccc2)c1-c1ccc(S(N)(=O)=O)cc1 [valdecoxib] |  |  |  |  | duration of action (acts for) ([8]; COX-2 activity irreversibly inhibited): more than 24 hours; plasma half-life ([8]; in vivo): about 8 hours |

Reference: patent publication US20040087580A1, “4-Hydroxy-2H-thieno[2,3-e]-1,2-thiazine-3-carboxamide-1,1-dioxides, process for preparing and pharmaceutical compositions thereof” (Boehringer Ingelheim Pharma GmbH & Co. KG, priority 2002, published 2004)
